The source of these data is US6706716B2, “Compounds specific for the human α1d adrenergic receptor and uses thereof” (Synaptic Pharmaceutical Corporation, priority 1998, dated 2004).

For experiment [1], the target named is T1, human α1b adrenergic receptor (Homo sapiens, UniProt P35368).
T1 construct: The entire coding region of α1b (1563 bp); expressed in transfected cells
T1 sequence (P35368 1-520): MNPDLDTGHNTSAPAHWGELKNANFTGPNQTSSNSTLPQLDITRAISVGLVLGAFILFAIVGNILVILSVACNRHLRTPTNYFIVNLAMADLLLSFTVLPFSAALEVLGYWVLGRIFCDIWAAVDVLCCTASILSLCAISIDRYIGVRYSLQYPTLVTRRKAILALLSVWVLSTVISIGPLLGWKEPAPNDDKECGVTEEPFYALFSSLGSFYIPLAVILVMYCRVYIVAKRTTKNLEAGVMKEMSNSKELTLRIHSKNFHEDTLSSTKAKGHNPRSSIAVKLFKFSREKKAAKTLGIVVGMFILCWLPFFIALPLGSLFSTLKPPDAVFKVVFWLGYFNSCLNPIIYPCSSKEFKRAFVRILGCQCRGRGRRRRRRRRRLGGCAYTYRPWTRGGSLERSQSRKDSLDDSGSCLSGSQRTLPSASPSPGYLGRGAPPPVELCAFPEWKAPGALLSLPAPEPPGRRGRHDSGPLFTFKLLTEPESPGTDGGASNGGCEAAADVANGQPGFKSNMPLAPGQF
Put plainly: Radioligand binding ([3H]prazosin) at cloned human α1b adrenergic receptor. Conditions: LM(tk-) cell membranes, read-out: Binding affinities (pKi) α1b (converted). On the procedure: (§1) First, conditions were determined which allowed measurement of the specific binding of a compound known to bind to the receptor. Then, the binding of the known compound to the receptor in membrane preparations was evaluated in the presence of several different concentrations of the test compound.
(§2) These cell lines were prepared by transfecting the cloned cDNA or cloned genomic DNA or constructs containing both genomic DNA and cDNA encoding the human receptors as described below.
α1b Human Adrenergic Receptor: The entire coding region of α1b (1563 bp), including 200 base pairs of 5′ untranslated sequence (5′ UT) and 600 bp of 3′ untranslated sequence (3′ UT), was cloned into the EcoRI site of pCEXV-3 eukaryotic expression vector. The construct involved ligating the full-length EcoRI brainstem cDNA fragment from λ ZapII into the expression vector. Stable cell lines were selected as described above. Membranes were harvested and assayed for their ability to bind [^3H]prazosin as described below (see Radioligand Binding assays). The cell line used herein was designated L-α1B and was deposited with the American Type Culture Collection, 12301 Parklawn Drive, Rockville, Md. 20852, U.S.A. under the provisions of the Budapest Treaty for the International Recognition of the Deposit of Microorganisms for the Purposes of Patent Procedure. The cell line L-α1B was accorded ATCC Accession No. CR 11139, on Sep. 29, 1992.
(§3) Radioligand Binding Assays for α1 Human Adrenergic Receptors: Transfected cells from culture flasks were scraped into 5 ml of 5 mM Tris-HCl, 5 mM EDTA, pH 7.5, and lysed by sonication. The cell lysates were centrifuged at 1000 rpm for 5 min at 4° C., and the supernatant was centrifuged at 30,000×g for 20 min at 4° C. The pellet was suspended in 50 mM Tris-HCl, 1 mM MgCl2, and 0.1% ascorbic acid at pH 7.5. Binding of the α1, antagonist [^3H]prazosin (0.5 nM, specific activity 76.2 Ci/mmol) to membrane preparations of LM(tk-) cells was done in a final volume of 0.25 ml and incubated at 37° C. for 1 hour. Nonspecific binding was determined in the presence of 10 μM phentolamine. The reaction was stopped by filtration through GF/B filters using a cell harvester.

For experiment [2], the target named is T2, human α1a adrenergic receptor (Homo sapiens, UniProt P35348).
T2 construct: The entire coding region of α1a (1401 bp); expressed in transfected cells
T2 sequence (P35348 1-466): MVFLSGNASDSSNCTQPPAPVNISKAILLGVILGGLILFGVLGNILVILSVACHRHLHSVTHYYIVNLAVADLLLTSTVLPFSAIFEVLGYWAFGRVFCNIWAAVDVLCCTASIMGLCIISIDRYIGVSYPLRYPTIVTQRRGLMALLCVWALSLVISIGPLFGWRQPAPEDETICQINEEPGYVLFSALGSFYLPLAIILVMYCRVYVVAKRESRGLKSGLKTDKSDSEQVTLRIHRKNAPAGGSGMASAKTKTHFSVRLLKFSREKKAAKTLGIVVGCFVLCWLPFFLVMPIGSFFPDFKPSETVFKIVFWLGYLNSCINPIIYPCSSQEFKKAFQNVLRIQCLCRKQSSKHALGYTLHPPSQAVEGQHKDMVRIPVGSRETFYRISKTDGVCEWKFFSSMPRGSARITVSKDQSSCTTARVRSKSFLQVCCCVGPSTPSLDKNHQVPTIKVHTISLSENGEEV
Put plainly: Radioligand binding ([3H]prazosin) at cloned human α1a adrenergic receptor. Conditions: LM(tk-) cell membranes, read-out: Binding affinities (pKi) α1a (converted). On the procedure: as §1, §2
The construct involved ligating three partial overlapping fragments: a 5′0.6 kb HincII genomic clone, a central 1.8 EcoRI hippocampal cDNA clone, and a 3′0.6 Kb PstI genomic clone. The hippocampal cDNA fragment overlaps with the 5′ and 3′ genomic clones so that the HincII and PstI sites at the 5′ and 3′ ends of the cDNA clone, respectively, were utilized for ligation. This full-length clone was cloned into the KpnI site of the expression vector, using the 5′ and 3′ KpnI sites of the fragment, derived from vector (i.e., pBluescript) and 3′-untranslated sequences, respectively. Stable cell lines were selected as described above. Membranes were harvested and assayed for their ability to bind [^3H]prazosin as described below (see Radioligand Binding assays).
as §3

As for `Cc1ccc(Cl)cc1N1CCN(CCN2C(=O)CC3(CCCC3)CC2=O)CC1` [Compound 13, 8-{2-[4-(5-Chloro-2-methylphenyl)piperazino]ethyl}-8-azaspiro [4.5]decane-7,9-dione], the values for the Ki in experiment [1] and in experiment [2] were 3.16 µM and 7.94 µM, respectively. Turning to `O=C1CC2(CCCC2)CC(=O)N1CCN1CCN(c2cc(F)ccc2F)CC1` [Compound 6, 8-{2-[4-(2,5-Difluorophenyl)piperazin-1-yl]ethyl}-8-azaspiro[4.5]decane-7,9-dione], the Ki in experiment [1] is 0.0501 µM. Regarding `C[C@H](CN1CCN(c2cc(F)ccc2F)CC1)N1C(=O)CC2(CCCC2)CC1=O` [Compound 8, 8-{(1R)-2-[4-(2,5-Difluorophenyl)piperazin-1-yl]-1-methylethyl}-8-azaspiro[4.5]decane-7,9-dione], the values for the Ki in experiment [1] and in experiment [2] were 0.0631 µM and 6.31 µM, respectively. In the same order, the values of `C[C@@H](CN1CCN(c2cc(F)ccc2F)CC1)N1C(=O)CC2(CCCC2)CC1=O` [Compound 10, 8-{(1S)-2-[4-(2,5-Difluorophenyl)piperazin-1-yl]-1-methylethyl}-8-azaspiro[4.5]decane-7,9-dione] are 3.98 µM and 7.94 µM.

On to `COc1ccc(F)cc1C1CCN(CCN2C(=O)CC3(CCCC3)CC2=O)CC1` [Compound 12, 8-{2-[4-(5-Fluoro-2-methoxyphenyl)piperidin-1-yl]ethyl}-8-azaspiro[4.5]decane-7,9-dione], for which the Ki in experiment [1] was 0.0631 µM; in experiment [2] it was 0.0794 µM. For the molecule `O=C1CC2(CCCC2)CC(=O)N1CCN1CCN(c2ccc(F)c(F)c2)CC1` [Compound 15, 8-{2-[4-(3,4-Difluorophenyl)piperazin-1-yl]ethyl}-8-azaspiro[4.5]decane-7,9-dione], the Ki is 1.58 µM in experiment [1] and 3.98 µM in experiment [2]. As to `O=C1CC2(CCCC2)CC(=O)N1CCN1CCN(c2cc(F)c(F)cc2F)CC1` [Compound 7, 8-{2-[4-(2,4,5-Trifluorophenyl)piperazin-1-yl]ethyl}-8-azaspiro[4.5]decane-7,9-dione], the Ki in experiment [1] is 0.398 µM; in experiment [2], 3.98 µM. With `O=C1CC2(CCCC2)CC(=O)N1CCN1CCN(c2c(F)cccc2F)CC1` [Compound 14, 8-{2-[4-(2,6-Difluorophenyl)piperazino]ethyl}-8-azaspiro[4.5]decane-7,9-dione], the Ki in experiment [1] is 0.126 µM; in experiment [2], 3.16 µM.
